According to patent US10993448B2, “Method for sanitizing fresh produce” (Dole Fresh Vegetables, Inc., priority 2014, dated 2021):
Several values for one entry are separate records, joined by “and”; a condition that tells them apart may be missing. Equal entries are not always repeated. Where two headings read alike, the source gives them in different places.

Key:
[1] = system: Listeria monocytogenes; format: cell-based
[2] = system: Non-selective mix; assay: Suspension tests, non-selective agar; format: cell-based, E. coli O157:H7, sv. Typhimurium, and Listeria monocytogenes; parameters: key to Average log reduction: * indicates a sample in which no bacteria grew, so no fold reduction may be calculated; settings: for Average log reduction: vs water control
[3] = system: Salmonella; assay: Suspension tests, Salmonella; format: cell-based, sv. Typhimurium; parameters: key to Average log reduction: * indicates a sample in which no bacteria grew, so no fold reduction may be calculated; settings: for Average log reduction: vs water control
[4] = system: background microbial load (LB load); assay: Log reduction analysis of background bacteria on inoculated Romaine lettuce; format: cell-based; settings: after each dip, in log units, No treatment 4.81
[5] = system: Listeria monocytogenes; assay: Suspension tests, Listeria; format: cell-based; parameters: key to Average log reduction: * indicates a sample in which no bacteria grew, so no fold reduction may be calculated; settings: for Average log reduction: vs water control
[6] = system: E. coli O157:H7; assay: Suspension tests, E. coli; format: cell-based; parameters: key to Average log reduction: * indicates a sample in which no bacteria grew, so no fold reduction may be calculated; settings: for Average log reduction: vs water control
[7] = system: microbial load (APC) of chopped Romaine lettuce; format: cell-based
[8] = system: microbial load (Total Aerobic Plate Count) of raw, unwashed leafy vegetables; format: cell-based
[9] = system: background microflora in wash water; assay: Reduction of bacteria from wash water using ozone; format: cell-based
Excerpt: Water containing high levels of background microflora was generated by dipping 200 g of lettuce in 2 L of water for 20 seconds. This lettuce was discarded and another 200 g of lettuce was dipped in the same water for 20 seconds. This was repeated for a total of 10 dips (referred to as Control in Table 34 below). Water with dissolved Ozone was then generated using a ClearWater Tech MSW245 Mobile Ozone Generator (San Luis Obispo, Calif.). The control microflora containing water was then mixed with this ‘Ozonated water’ at various mix levels ranging from 10 to 60% of the ozonated water with the control microflora containing water. First, 10% ozonated water was blended with 90% microflora containing water and after 20 seconds, 100 ml of water was removed into a sterile water sample bottle. This protocol was repeated in triplicate, as well as testing 20%, 30%, 40%, 50%, and 60% blends of ozonated water combined with the microflora containing water. In addition, 200 g of lettuce was added to the ozonated solution for 20 seconds and 100 ml of water was then collected in a sterile water sample bottle. This was also repeated in triplicate. The samples were serially diluted using PB as the diluent and plated on Total Plate Count agar. The plates were incubated for 48 hours at 30° C. for enumeration of the bacteria present following treatment.
The theoretical dilution reduction in Table 34 was calculated based on the number of cells that would be present if they were diluted in water or buffer (i.e. not a solution that would cause cell death or injury).

[O][Cl+][O-] [ClO2 dip, chlorine dioxide]
Listeria Load (%) [1]: 2.87% and 4.29%
% bacteria killed [2]: 100.000%
Average (bacterial load) ([2]; 30 seconds at 4° C., Water 1.00 × 10^7): 0.00
% bacteria killed ([2]; 30 seconds at 4° C., listed as 10 ppm chlorine dioxide): 100%
% bacteria killed ([2]; 30 seconds at 4° C., listed as Chlorine dioxide (10 ppm)): 100%
Average log reduction ([2]; 30 seconds at 4° C.): *
Average (bacterial load) ([2]; 30 seconds at 15° C., Water 8.46 × 10^6): 0.00
% bacteria killed ([2]; 30 seconds at 15° C., listed as 10 ppm chlorine dioxide): 100%
% bacteria killed ([2]; 30 seconds at 15° C., listed as Chlorine dioxide (10 ppm)): 100%
Average log reduction ([2]; 30 seconds at 15° C.): *
Average (bacterial load) ([2]; 30 seconds at 40° C., Water 8.30 × 10^6): 1.00 × 10^2
% bacteria killed ([2]; 30 seconds at 40° C., listed as 10 ppm chlorine dioxide): 99.9988%
% bacteria killed ([2]; 30 seconds at 40° C., listed as Chlorine dioxide (10 ppm)): 99.9988%
Average log reduction ([2]; 30 seconds at 40° C.): 4.92
Average (bacterial load) ([2]; 90 seconds at 4° C., Water 6.22 × 10^6): 2.00 × 10^0
% bacteria killed ([2]; 90 seconds at 4° C., listed as 10 ppm chlorine dioxide): 100%
% bacteria killed ([2]; 90 seconds at 4° C., listed as Chlorine dioxide (10 ppm)): 100%
Average log reduction ([2]; 90 seconds at 4° C.): 6.49
Average (bacterial load) ([2]; 90 seconds at 15° C., Water 1.21 × 10^7): 2.00 × 10^1
% bacteria killed ([2]; 90 seconds at 15° C., listed as 10 ppm chlorine dioxide): 99.9998%
% bacteria killed ([2]; 90 seconds at 15° C., listed as Chlorine dioxide (10 ppm)): 99.9998%
Average log reduction ([2]; 90 seconds at 15° C.): 5.78
Average (bacterial load) ([2]; 90 seconds at 40° C., Water 9.76 × 10^6): 7.20 × 10^4
% bacteria killed ([2]; 90 seconds at 40° C., listed as 10 ppm chlorine dioxide): 99.2623%
% bacteria killed ([2]; 90 seconds at 40° C., listed as Chlorine dioxide (10 ppm)): 99.2623%
Average log reduction ([2]; 90 seconds at 40° C.): 2.13
% bacteria killed ([3]; 30 seconds at 4° C.): 100%
Average (bacterial load) ([3]; 30 seconds at 4° C., Water 5.32 × 10^6): 0.00
Average log reduction ([3]; 30 seconds at 4° C.): *
% bacteria killed ([3]; 30 seconds at 15° C.): 100%
Average (bacterial load) ([3]; 30 seconds at 15° C., Water 2.70 × 10^6): 0.00
Average log reduction ([3]; 30 seconds at 15° C.): *
% bacteria killed ([3]; 30 seconds at 40° C.): 99.9995%
Average (bacterial load) ([3]; 30 seconds at 40° C., Water 4.36 × 10^6): 2.20 × 10^1
Average log reduction ([3]; 30 seconds at 40° C.): 5.30
% bacteria killed ([3]; 90 seconds at 4° C.): 100%
Average (bacterial load) ([3]; 90 seconds at 4° C., Water 1.57 × 10^6): 0.00
Average log reduction ([3]; 90 seconds at 4° C.): *
% bacteria killed ([3]; 90 seconds at 15° C.): 100%
Average (bacterial load) ([3]; 90 seconds at 15° C., Water 4.54 × 10^6): 0.00
Average log reduction ([3]; 90 seconds at 15° C.): *
% bacteria killed ([3]; 90 seconds at 40° C.): 99.4879%
Average (bacterial load) ([3]; 90 seconds at 40° C., Water 7.42 × 10^6): 3.80 × 10^4
Average log reduction ([3]; 90 seconds at 40° C.): 2.29
Avg. Bacterial Load ([4]; Treatment 1 (ClO2, Cl2, PAA)): 1.56
Avg. Bacterial Load ([4]; Treatment 2 (ClO2, PAA, Cl2)): 2.41
% bacteria killed ([5]; 30 seconds at 4° C.): 100%
Average (bacterial load) ([5]; 30 seconds at 4° C., Water 4.96 × 10^5): 0.00
Average log reduction ([5]; 30 seconds at 4° C.): *
% bacteria killed ([5]; 30 seconds at 15° C.): 100%
Average (bacterial load) ([5]; 30 seconds at 15° C., Water 2.24 × 10^6): 0.00
Average log reduction ([5]; 30 seconds at 15° C.): *
% bacteria killed ([5]; 30 seconds at 40° C.): 99.9999%
Average (bacterial load) ([5]; 30 seconds at 40° C., Water 2.32 × 10^6): 2.00 × 10^0
Average log reduction ([5]; 30 seconds at 40° C.): 6.06
% bacteria killed ([5]; 90 seconds at 4° C.): 100%
Average (bacterial load) ([5]; 90 seconds at 4° C., Water 2.06 × 10^5): 0.00
Average log reduction ([5]; 90 seconds at 4° C.): *
% bacteria killed ([5]; 90 seconds at 15° C.): 100%
Average (bacterial load) ([5]; 90 seconds at 15° C., Water 7.14 × 10^4): 0.00
Average log reduction ([5]; 90 seconds at 15° C.): *
% bacteria killed ([5]; 90 seconds at 40° C.): 96.080%
Average (bacterial load) ([5]; 90 seconds at 40° C., Water 2.50 × 10^6): 9.80 × 10^4
Average log reduction ([5]; 90 seconds at 40° C.): 1.41
% bacteria killed ([6]; 30 seconds at 4° C.): 100%
Average (bacterial load) ([6]; 30 seconds at 4° C., Water 5.72 × 10^6): 0.00
Average log reduction ([6]; 30 seconds at 4° C.): *
% bacteria killed ([6]; 30 seconds at 15° C.): 100%
Average (bacterial load) ([6]; 30 seconds at 15° C., Water 5.96 × 10^6): 0.00
Average log reduction ([6]; 30 seconds at 15° C.): *
% bacteria killed ([6]; 30 seconds at 40° C.): 99.9993%
Average (bacterial load) ([6]; 30 seconds at 40° C., Water 3.22 × 10^6): 2.20 × 10^1
Average log reduction ([6]; 30 seconds at 40° C.): 5.17
% bacteria killed ([6]; 90 seconds at 4° C.): 100%
Average (bacterial load) ([6]; 90 seconds at 4° C., Water 3.96 × 10^6): 0.00
Average log reduction ([6]; 90 seconds at 4° C.): *
% bacteria killed ([6]; 90 seconds at 15° C.): 100%
Average (bacterial load) ([6]; 90 seconds at 15° C., Water 5.74 × 10^6): 0.00
Average log reduction ([6]; 90 seconds at 15° C.): *
% bacteria killed ([6]; 90 seconds at 40° C.): 99.1083%
Average (bacterial load) ([6]; 90 seconds at 40° C., Water 3.14 × 10^6): 2.80 × 10^4
Average log reduction ([6]; 90 seconds at 40° C.): 2.05

CC(=O)OO [PAA, peroxyacetic acid]
log unit reduction in microbial load after each individual step [7]: 2.4 log unit

OO [Treatment H2O2, hydrogen peroxide]
APC (CFU/g) [8]: 5,800 CFU/g

O=[O+][O-] [ozone solution, ozone]
Avg. CFU/ml ([9]; lettuce 20 sec in ozone solution, initial ozone 2.2 ppm, 20 sec in water 19266): 6900 CFU/ml
Avg. CFU/ml ([9]; ozone solution (initial 1.8 ppm) mixed with microflora containing water, Control after 10 dips in water 300000, listed as 10% ozone solution, After mixing 10% ozone solution): 300000 CFU/ml
Avg. CFU/ml ([9]; ozone solution (initial 1.8 ppm) mixed with microflora containing water, Control after 10 dips in water 300000, listed as 20% ozone solution, After mixing 20% ozone solution): 185333 CFU/ml
Avg. CFU/ml ([9]; ozone solution (initial 1.8 ppm) mixed with microflora containing water, Control after 10 dips in water 300000, listed as 30% ozone solution, After mixing 30% ozone solution): 174667 CFU/ml
Avg. CFU/ml ([9]; ozone solution (initial 1.8 ppm) mixed with microflora containing water, Control after 10 dips in water 300000, listed as 40% ozone solution, After mixing 40% ozone solution): 121667 CFU/ml
Avg. CFU/ml ([9]; ozone solution (initial 1.8 ppm) mixed with microflora containing water, Control after 10 dips in water 300000, listed as 50% ozone solution, After mixing 50% ozone solution): 87667 CFU/ml
Avg. CFU/ml ([9]; ozone solution (initial 1.8 ppm) mixed with microflora containing water, Control after 10 dips in water 300000, listed as 60% ozone solution, After mixing 60% ozone solution): 70333 CFU/ml
